Reference: the supplement of paper PMC10307832

How the values were obtained:
Assay in all cases: relative viability (nuclei count vs DMSO), 5 days (fraction); higher = more cells survive
[1] = compound: COc1cc(Nc2c(C#N)cnc3cc(OCCCN4CCN(C)CC4)c(OC)cc23)c(Cl)cc1Cl [Bosutinib]
How it was run: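 Only plates meeting two conditions passed: control CV below 25% and at least one doubling. Lung cancer cell lines, kept overnight at 37 °C in 1536-well plates, were pinned with five library-drug doses (not always all listed) √10 apart on vehicle-anchored plates and grown 5 days without medium change. A one-step fix, permeabilisation and Hoechst stain preceded 4× imaging and MetaXpress nuclear counting. Viability equals treated-well nuclei divided by vehicle-well nuclei, as the median over plates.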

[2] = compound: COc1cc(Nc2c(C#N)cnc3cc(OCCCN4CCN(C)CC4)c(OC)cc23)c(Cl)cc1Cl [Bosutinib] + CC1(C)CCC(c2ccc(Cl)cc2)=C(CN2CCN(c3ccc(C(=O)NS(=O)(=O)c4ccc(N[C@H](CCN5CCOCC5)CSc5ccccc5)c(S(=O)(=O)C(F)(F)F)c4)cc3)CC2)C1 [Navitoclax] (partner 0.5 µM)
How it was run: (§1)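 Relative viability equals treated-well nuclei counts divided by vehicle-well nuclei counts. Counts came from 4× images of lung cancer cell lines grown in 1536-well plates for 5 days after pin-tool dosing on the day after seeding. Dosing used one drug alone or a fixed anchor-drug dose plus five library-drug doses (not always all listed) in √10 steps, and values are medians of duplicate plates.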

[3] = compound: COc1cc(Nc2c(C#N)cnc3cc(OCCCN4CCN(C)CC4)c(OC)cc23)c(Cl)cc1Cl [Bosutinib] + C[C@]1(O)C[C@@H](c2nc(-c3ccc4ccc(-c5ccccc5)nc4c3)c3c(N)nccn32)C1 [Linsitinib] (partner 1 µM)
How it was run: as §1

[4] = compound: COc1cc(Nc2c(C#N)cnc3cc(OCCCN4CCN(C)CC4)c(OC)cc23)c(Cl)cc1Cl [Bosutinib] + CC(C)C[C@H](NC(=O)[C@H](Cc1ccccc1)NC(=O)c1cnccn1)B(O)O [Bortezomib] (partner 0.002 µM)
How it was run: as §1

[5] = compound: COc1cc(Nc2c(C#N)cnc3cc(OCCCN4CCN(C)CC4)c(OC)cc23)c(Cl)cc1Cl [Bosutinib] + C[C@@H](Oc1cc(-c2cnn(C3CCNCC3)c2)cnc1N)c1c(Cl)ccc(F)c1Cl [Crizotinib] (partner 1 µM)
How it was run: as §1

[6] = compound: COc1cc(Nc2c(C#N)cnc3cc(OCCCN4CCN(C)CC4)c(OC)cc23)c(Cl)cc1Cl [Bosutinib] + CS(=O)(=O)N1CCN(Cc2cc3nc(-c4cccc5[nH]ncc45)nc(N4CCOCC4)c3s2)CC1 [Pictilisib] (partner 1 µM)
How it was run: as §1

[7] = compound: COc1cc(Nc2c(C#N)cnc3cc(OCCCN4CCN(C)CC4)c(OC)cc23)c(Cl)cc1Cl [Bosutinib] + CS(=O)(=O)CCNCc1ccc(-c2ccc3ncnc(Nc4ccc(OCc5cccc(F)c5)c(Cl)c4)c3c2)o1 [Lapatinib] (partner 2 µM)
How it was run: as §1

[8] = compound: COc1cc(Nc2c(C#N)cnc3cc(OCCCN4CCN(C)CC4)c(OC)cc23)c(Cl)cc1Cl [Bosutinib] + COc1cc2c(Oc3ccc(NC(=O)C4(C(=O)Nc5ccc(F)cc5)CC4)cc3F)ccnc2cc1OCCCN1CCOCC1 [Foretinib] (partner 0.25 µM)
How it was run: as §1

[9] = compound: COc1cc(Nc2c(C#N)cnc3cc(OCCCN4CCN(C)CC4)c(OC)cc23)c(Cl)cc1Cl [Bosutinib] + O=C(c1cc(Cc2n[nH]c(=O)c3ccccc23)ccc1F)N1CCN(C(=O)C2CC2)CC1 [Olaparib] (partner 8 µM)
How it was run: as §1

[10] = compound: COc1cc(Nc2c(C#N)cnc3cc(OCCCN4CCN(C)CC4)c(OC)cc23)c(Cl)cc1Cl [Bosutinib] + Cc1nc(NC(=O)N2CCC[C@H]2C(N)=O)sc1-c1ccnc(C(C)(C)C(F)(F)F)c1 [Alpelisib] (partner 2 µM)
How it was run: as §1

[11] = compound: COc1cc(Nc2c(C#N)cnc3cc(OCCCN4CCN(C)CC4)c(OC)cc23)c(Cl)cc1Cl [Bosutinib] + Cc1nc(Nc2ncc(C(=O)Nc3c(C)cccc3Cl)s2)cc(N2CCN(CCO)CC2)n1 [Dasatinib] (partner 0.075 µM)
How it was run: as §1

[12] = compound: COc1cc(Nc2c(C#N)cnc3cc(OCCCN4CCN(C)CC4)c(OC)cc23)c(Cl)cc1Cl [Bosutinib] + COc1cccc2cc(-c3nc([C@H]4CC[C@H](C(=O)O)CC4)n4ncnc(N)c34)[nH]c12 [OSI-027] (partner 0.5 µM)
How it was run: as §1

[13] = compound: COc1cc(Nc2c(C#N)cnc3cc(OCCCN4CCN(C)CC4)c(OC)cc23)c(Cl)cc1Cl [Bosutinib] + N=C(N)NC(=N)NCCc1ccccc1 [Phenformin] (partner 250 µM)
How it was run: as §1

[14] = compound: COc1cc(Nc2c(C#N)cnc3cc(OCCCN4CCN(C)CC4)c(OC)cc23)c(Cl)cc1Cl [Bosutinib] + Cc1cc(Nc2cc(N3CCN(C)CC3)nc(Sc3ccc(NC(=O)C4CC4)cc3)n2)n[nH]1 [Tozasertib] (partner 0.1 µM)
How it was run: as §1

[15] = compound: COc1cc(Nc2c(C#N)cnc3cc(OCCCN4CCN(C)CC4)c(OC)cc23)c(Cl)cc1Cl [Bosutinib] + CCNC(=O)c1noc(-c2cc(C(C)C)c(O)cc2O)c1-c1ccc(CN2CCOCC2)cc1 [Luminespib] (partner 0.01 µM)
How it was run: as §1

Cell Line: NCI-H1299
- relative viability ([1]; 0.01 µM): 1.01
- relative viability ([1]; 0.03162 µM): 1.01
- relative viability ([1]; 0.1 µM): 1.03
- relative viability ([1]; 1 µM): 1.02
- relative viability ([2]; first compound 0.01 µM): 1.05
- relative viability ([2]; first compound 0.03162 µM): 1.06
- relative viability ([2]; first compound 0.1 µM): 0.995
- relative viability ([2]; first compound 1 µM): 1.03
- relative viability ([3]; first compound 0.01 µM): 1.05
- relative viability ([3]; first compound 0.03162 µM): 0.983
- relative viability ([3]; first compound 0.1 µM): 1.07
- relative viability ([3]; first compound 1 µM): 0.92
- relative viability ([4]; first compound 0.01 µM): 1
- relative viability ([4]; first compound 0.03162 µM): 1.06
- relative viability ([4]; first compound 0.1 µM): 1.01
- relative viability ([4]; first compound 1 µM): 1
- relative viability ([5]; first compound 0.01 µM): 0.947
- relative viability ([5]; first compound 0.03162 µM): 1
- relative viability ([5]; first compound 0.1 µM): 0.965
- relative viability ([5]; first compound 1 µM): 0.942
- relative viability ([6]; first compound 0.01 µM): 0.777
- relative viability ([6]; first compound 0.03162 µM): 0.989
- relative viability ([6]; first compound 0.1 µM): 0.858
- relative viability ([6]; first compound 1 µM): 0.515
- relative viability ([7]; first compound 0.01 µM): 0.969
- relative viability ([7]; first compound 0.03162 µM): 0.99
- relative viability ([7]; first compound 0.1 µM): 0.903
- relative viability ([7]; first compound 1 µM): 0.916
- relative viability ([8]; first compound 0.01 µM): 1.16
- relative viability ([8]; first compound 0.03162 µM): 1.14
- relative viability ([8]; first compound 0.1 µM): 1.13
- relative viability ([8]; first compound 1 µM): 0.989
- relative viability ([9]; first compound 0.01 µM): 1
- relative viability ([9]; first compound 0.03162 µM): 0.982
- relative viability ([9]; first compound 0.1 µM): 0.994
- relative viability ([9]; first compound 1 µM): 0.96
- relative viability ([10]; first compound 0.01 µM): 1.05
- relative viability ([10]; first compound 0.03162 µM): 1.03
- relative viability ([10]; first compound 0.1 µM): 1.05
- relative viability ([10]; first compound 1 µM): 1.2

Cell Line: NCI-H1623
- relative viability ([1]; 0.01 µM): 0.891
- relative viability ([1]; 0.03162 µM): 0.95
- relative viability ([1]; 0.1 µM): 0.979
- relative viability ([1]; 1 µM): 0.724
- relative viability ([11]; first compound 0.01 µM): 0.38
- relative viability ([11]; first compound 0.03162 µM): 0.555
- relative viability ([11]; first compound 0.1 µM): 0.542
- relative viability ([11]; first compound 1 µM): 0.57
- relative viability ([12]; first compound 0.01 µM): 0.432
- relative viability ([12]; first compound 0.03162 µM): 0.418
- relative viability ([12]; first compound 0.1 µM): 0.45
- relative viability ([12]; first compound 1 µM): 0.416
- relative viability ([13]; first compound 0.01 µM): 0.534
- relative viability ([13]; first compound 0.03162 µM): 0.591
- relative viability ([13]; first compound 0.1 µM): 0.51
- relative viability ([13]; first compound 1 µM): 0.51
- relative viability ([8]; first compound 0.01 µM): 0.854
- relative viability ([8]; first compound 0.03162 µM): 0.846
- relative viability ([8]; first compound 0.1 µM): 0.866
- relative viability ([8]; first compound 1 µM): 0.64
- relative viability ([14]; first compound 0.01 µM): 0.474
- relative viability ([14]; first compound 0.03162 µM): 0.425
- relative viability ([14]; first compound 0.1 µM): 0.428
- relative viability ([14]; first compound 1 µM): 0.399
- relative viability ([15]; first compound 0.01 µM): 0.645
- relative viability ([15]; first compound 0.03162 µM): 0.565
- relative viability ([15]; first compound 0.1 µM): 0.517
- relative viability ([15]; first compound 1 µM): 0.497
